Laboratory results taken from US20170296491A1, “PHARMACEUTICAL COMPOSITIONS COMPRISING LEVODOPA AMIDE AND USES THEREOF” (priority 2015, published 2017).
Where a name gives a salt, the structure may show the parent alone.

Assays:
[1] = Effect of preparation method and pH on stability of LDA-HCl/CD formulations; format: physicochemical; settings: 5 days at room temperature (Table 7)
Procedure: LDA-HCl/CD formulations were prepared by the following methods, and were then tested for stability. Method 1. Carbidopa (CD, powder) [Teva Pharmaceuticals Ltd., Israel] was added to LDA-HCl solution. […] Precipitation occurred at room temperature. Method 2. Liquid CD formulations were prepared by weighting CD [Teva Pharmaceuticals Ltd., Israel] in a suitable container with different L-arginine [Merck] weights to obtain a final concentration of 0.8% CD (wet form, 0.75% dry form) in different molar ratios to arginine (Table 6). CD formulations were prepared as described in the International Publication No. WO 2010/134074. LDA-HCl (powder) was added to CD solutions to attain the final desired concentration of LDA-HCl/CD formulations. Method 3. CD solutions (40 mg/ml, prepared as described in the International Publication No. WO 2010/134074) were mixed with LDA-HCl solutions to attain the final desired concentration of LDA/CD formulations. The LDA-HCl formulations were prepared by dissolving 200, 160 or 120 mg/ml of LDA-HCl in 40 mM citric buffer. The chemical stability of 7 LDA-HCl/CD formulations was evaluated by HPLC analysis at t0 and after 5 days at room temperature. The recovery after 5 days at room temperature was calculated compared to t0 (Table 7).

[2] = Plasma pharmacokinetics of LDA and LD after oral LDA-HCl with and without CD in rats; format: in vivo; settings: oral LDA-HCl 25 mg/kg with or without oral 10 mg/kg CD
Procedure: The purpose of this experiment was to determine the plasma pharmacokinetics of LDA and LD following oral administration of LD or LDA-HCl with and without CD in Wistar rats.
Wistar rats underwent fasting overnight prior to the dosing and received food only 2 hour post-dosing. The method used to dose orally was via oesophagotubage. Solutions were prepared as described above.

[3] = Stability of LDA-HCl 50 mg/ml in citrate or phosphate buffer, 4 days at 37° C., HPLC; format: physicochemical
Procedure: Liquid formulations were prepared by dissolving LDA-HCl, 50 mg/ml in buffer citrate or buffer phosphate at different pH levels (Table 2). The formulations were incubated 4 days at 37° C., their stability was evaluated by HPLC analysis at the end of the fourth day, and the recovery after 4 days at 37° C. was calculated compared to T=0.

[4] = Physical stability (visual) of LDA-HCl 50 mg/ml in water or buffers at room temperature; format: physicochemical; settings: for Color at T = 24 h (RT): 50 mg/ml; for time physically stable at room temperature: 5% LDA-HCl and water or a buffer
Procedure: (§1) Liquid formulations were prepared by dissolving LDA-HCl, 50 mg/ml in water or different buffers (40 mM) at various pH levels. The physical stability of LDA was determined visually after 24 hours and 7 days (Table 3), and the chemical stability of LDA was determined by HPLC analysis (Table 4) after 24 h at room temperature (RT) and expressed as % recovery compared to t0.

[5] = Chemical stability (HPLC) of LDA-HCl 50 mg/ml in water or buffers after 24 h at room temperature; format: physicochemical
Procedure: as §1

[6] = Long term stability of LDA-HCl 200 mg/ml in citric buffer with NAC, 2 weeks at 37° C.; format: physicochemical
Procedure: Liquid formulation comprising LDA-HCl in citric buffer was prepared by dissolving 200 mg/ml LDA-HCl in 40 mM citric buffer with 0.05% N-acetylcysteine (NAC) as antioxidant. The formulation was incubated for 2 weeks at 37° C. The stability of LDA after 14 days at 37° C. was evaluated by HPLC analysis, and the recovery calculated compared to t0 (Table 5).

[7] = Physical stability of LDA-HCl solutions with or without added CD-Arg formulation; format: physicochemical; settings: preferably pH >4.6
Procedure: HCl solutions at 3 different concentrations containing 0.3% Tween 80 were added to LDA to obtain solutions having a final LDA concentration of 200 mg/ml and a molar ratio of 1:0.89, 1:0.92 and 1:0.95 LDA:HCl. CD-Arg formulation (CD:Arg molar ratio 1:1.25) was prepared in Tween 80 0.3% and was added gradually under stirring to 4 volumes of each of the 3 LDA-HCl solutions. The physical stability of the solutions was evaluated (Table 15). As shown, the addition of CD to LDA-HCl solutions yielded stable solutions if added to LDA-HCl solutions having a pH>3.8, preferably pH >4.6.

[8] = 200 mg/ml LDA-HCl, 40 mM citric buffer, 0.05% NAC

C[C@@](Cc1ccc(O)c(O)c1)(NN)C(=O)O [CD, Carbidopa]
chemical stability in LDA-HCl/CD formulations [1]: pH-dependent
effect of CD on plasma concentration of LD [2]: increases
effect of CD on plasma concentrations of LDA [2]: no effect

NC(=O)C(N)Cc1ccc(O)c(O)c1 (stereo not drawn) [LDA-HCl, 2-amino-3-(3,4-dihydroxyphenyl)propanamide]
stability at 37° C. ([3]; in buffer phosphate at pH>5.7): not stable
time stable at 37° C. ([3]; in citrate buffer): at least 4 days
Color at T = 24 h (RT) ([4]; Acetate pH 3.76): light yellow
Color at T = 24 h (RT) ([4]; Acetate pH 4.72): light yellow
Color at T = 24 h (RT) ([4]; Citrate pH 3.09): light yellow
Color at T = 24 h (RT) ([4]; Citrate pH 3.90): light yellow
Color at T = 24 h (RT) ([4]; Citrate pH 4.85): light yellow
Color at T = 24 h (RT) ([4]; Citrate pH 5.65): medium yellow
Color at T = 24 h (RT) ([4]; Histidine pH 6.20): medium yellow
Color at T = 24 h (RT) ([4]; Phosphate pH 6.03): medium yellow
Color at T = 24 h (RT) ([4]; Phosphate pH 6.32): medium yellow
Color at T = 24 h (RT) ([4]; Tartrate pH 3.84): light yellow
Color at T = 24 h (RT) ([4]; Tris pH 5.39): light yellow
Color at T = 24 h (RT) ([4]; Tris pH 6.14): medium yellow
Color at T = 24 h (RT) ([4]; Tris pH 6.61): medium yellow
Color at T = 24 h (RT) ([4]; Water for injection (WFI) pH 3.56): light yellow
Color at T = 24 h (RT) ([4]; Water for injection (WFI) pH 4.14): light yellow
Color at T = 24 h (RT) ([4]; Water for injection (WFI) pH 4.95): light yellow
Color at T = 24 h (RT) ([4]; Water for injection (WFI) pH 5.93): medium yellow
Color at T = 24 h (RT) ([4]; Water for injection (WFI) pH 6.44): medium yellow
Color at T = 24 h (RT) ([4]; Water for injection (WFI) pH 6.91): strong yellow
time physically stable at room temperature ([4]; all conditions tested): 24 h
time physically stable at room temperature ([4]; only formulations having a pH<5.5): at least 7 days
time chemically stable at room temperature ([5]; 5% LDA-HCl and water or a buffer, pH ranging between 3 to 7): at least 24 h
LDA (mg/ml) at T = 0 ([5]; Acetate pH 3.76): 52.09 mg/mL
LDA (mg/ml) at T = 24 hr (RT) ([5]; Acetate pH 3.76): 52.41 mg/mL
LDA (mg/ml) at T = 0 ([5]; Acetate pH 4.72): 52.66 mg/mL
LDA (mg/ml) at T = 24 hr (RT) ([5]; Acetate pH 4.72): 53.05 mg/mL
LDA (mg/ml) at T = 0 ([5]; Citrate pH 3.09): 51.84 mg/mL
LDA (mg/ml) at T = 24 hr (RT) ([5]; Citrate pH 3.09): 52.09 mg/mL
LDA (mg/ml) at T = 0 ([5]; Citrate pH 3.9): 51.34 mg/mL
LDA (mg/ml) at T = 24 hr (RT) ([5]; Citrate pH 3.9): 51.7 mg/mL
LDA (mg/ml) at T = 0 ([5]; Citrate pH 4.85): 52.05 mg/mL
LDA (mg/ml) at T = 24 hr (RT) ([5]; Citrate pH 4.85): 52.75 mg/mL
LDA (mg/ml) at T = 0 ([5]; Citrate pH 5.65): 51.24 mg/mL
LDA (mg/ml) at T = 24 hr (RT) ([5]; Citrate pH 5.65): 51.03 mg/mL
LDA (mg/ml) at T = 0 ([5]; Histidine pH 6.2): 51.27 mg/mL
LDA (mg/ml) at T = 24 hr (RT) ([5]; Histidine pH 6.2): 51.76 mg/mL
LDA (mg/ml) at T = 0 ([5]; Phosphate pH 6.03): 51.32 mg/mL
LDA (mg/ml) at T = 24 hr (RT) ([5]; Phosphate pH 6.03): 51.36 mg/mL
LDA (mg/ml) at T = 0 ([5]; Phosphate pH 6.32): 52.05 mg/mL
LDA (mg/ml) at T = 24 hr (RT) ([5]; Phosphate pH 6.32): 51.82 mg/mL
LDA (mg/ml) at T = 0 ([5]; Tartrate pH 3.84): 52.46 mg/mL
LDA (mg/ml) at T = 24 hr (RT) ([5]; Tartrate pH 3.84): 52.26 mg/mL
LDA (mg/ml) at T = 0 ([5]; Tris pH 5.39): 51.88 mg/mL
LDA (mg/ml) at T = 24 hr (RT) ([5]; Tris pH 5.39): 52.08 mg/mL
LDA (mg/ml) at T = 0 ([5]; Tris pH 6.14): 51.79 mg/mL
LDA (mg/ml) at T = 24 hr (RT) ([5]; Tris pH 6.14): 51.73 mg/mL
LDA (mg/ml) at T = 0 ([5]; Tris pH 6.61): 51.62 mg/mL
LDA (mg/ml) at T = 24 hr (RT) ([5]; Tris pH 6.61): 51.74 mg/mL
LDA (mg/ml) at T = 0 ([5]; WFI pH 3.56): 51.91 mg/mL
LDA (mg/ml) at T = 24 hr (RT) ([5]; WFI pH 3.56): 51.34 mg/mL
LDA (mg/ml) at T = 0 ([5]; WFI pH 4.14): 51.3 mg/mL
LDA (mg/ml) at T = 24 hr (RT) ([5]; WFI pH 4.14): 51.57 mg/mL
LDA (mg/ml) at T = 0 ([5]; WFI pH 4.95): 51.07 mg/mL
LDA (mg/ml) at T = 24 hr (RT) ([5]; WFI pH 4.95): 50.23 mg/mL
LDA (mg/ml) at T = 0 ([5]; WFI pH 5.93): 51.32 mg/mL
LDA (mg/ml) at T = 24 hr (RT) ([5]; WFI pH 5.93): 50.5 mg/mL
LDA (mg/ml) at T = 0 ([5]; WFI pH 6.44): 51.24 mg/mL
LDA (mg/ml) at T = 24 hr (RT) ([5]; WFI pH 6.44): 50.33 mg/mL
LDA (mg/ml) at T = 0 ([5]; WFI pH 6.91): 51.05 mg/mL
LDA (mg/ml) at T = 24 hr (RT) ([5]; WFI pH 6.91): 49.54 mg/mL
LDA content at T = 0 [6, 8]: 18.69
LDA content at T = 2 w, 37° C. [6, 8]: 19.01
time stable ([6]; high concentrations of LDA-HCl and NAC in citric buffer): at least 14 days
pH of LDA-HCl solution at which addition of CD yielded stable solutions [7]: > 3.8
